Assay results from patent US20250313563A1, “GLYCOGEN SYNTHASE KINASE 3 INHIBITORS AND USES THEREOF” (The Broad Institute, Inc., priority 2022, published 2025).
Where two headings read alike, the source gives them in different places.

Legend:
[1] = target: GSK3α (GST-full length GSK3α) (Homo sapiens (Human), UniProt P49840); assay: GSK3α TR-FRET kinase assay; type: biochemical
Procedure, shortened: (§1)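 Compound was preincubated 30 min with 1 nM GST-GSK3 enzyme. Reaction ran 100 min at ambient temperature in Tris pH 7.5/MgCl2 with 200 nM biotinylated pS645-glycogen synthase 631-650 peptide and ATP (4 μM GSK3α, 2 μM GSK3b, or 1 mM). The EDTA-stopped reaction was read by TR-FRET (Tb-anti-pSer641/streptavidin-d2), and IC50s were fitted.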

[2] = target: GSK3b (GST-full length GSK3b) (Homo sapiens (Human), UniProt P49841); assay: GSK3b TR-FRET kinase assay; type: biochemical
Procedure, shortened: as §1

[3] = 1 nM GSK3α, 4 μM ATP, 30 minute preincubation, geometric mean, read-out: GSK3-A TR-FRET BIOCHEMICAL (TR-FRET), GMean, IC50
[4] = 1 nM GSK3b, 2 μM ATP, 30 minute preincubation, geometric mean, read-out: GSK3-B TR-FRET BIOCHEMICAL (TR-FRET), GMean, IC50
[5] = 1 nM GSK3α, 4 μM ATP, 30 minute preincubation, Table 16, read-out: GSK3-A TR-FRET BIOCHEMICAL (TR-FRET), IC50
[6] = 1 nM GSK3b, 2 μM ATP, 30 minute preincubation, Table 16, read-out: GSK3-B TR-FRET BIOCHEMICAL (TR-FRET), IC50
[7] = read-out: GSK3-A (TR-FRET 1 mM ATP), GMean, IC50, 1 mM ATP, geometric mean
[8] = read-out: GSK3-B (TR-FRET 1 mM ATP), GMean, IC50, 1 mM ATP, geometric mean
[9] = 1 nM GSK3α, 4 μM ATP, 30 minute preincubation, read-out: GSK3-A TR-FRET BIOCHEMICAL (TR-FRET), IC50
[10] = 1 nM GSK3b, 2 μM ATP, 30 minute preincubation, read-out: GSK3-B TR-FRET BIOCHEMICAL (TR-FRET), IC50
[11] = 1 nM GSK3α, 4 μM ATP, 30 minute preincubation, Table 16, read-out: GSK3-A TR-FRET BIOCHEMICAL (TR-FRET)
[12] = 1 nM GSK3b, 2 μM ATP, 30 minute preincubation, Table 16, read-out: GSK3-B TR-FRET BIOCHEMICAL (TR-FRET)

Sequence of GSK3b (GST-full length GSK3b) (P49841 whole entry): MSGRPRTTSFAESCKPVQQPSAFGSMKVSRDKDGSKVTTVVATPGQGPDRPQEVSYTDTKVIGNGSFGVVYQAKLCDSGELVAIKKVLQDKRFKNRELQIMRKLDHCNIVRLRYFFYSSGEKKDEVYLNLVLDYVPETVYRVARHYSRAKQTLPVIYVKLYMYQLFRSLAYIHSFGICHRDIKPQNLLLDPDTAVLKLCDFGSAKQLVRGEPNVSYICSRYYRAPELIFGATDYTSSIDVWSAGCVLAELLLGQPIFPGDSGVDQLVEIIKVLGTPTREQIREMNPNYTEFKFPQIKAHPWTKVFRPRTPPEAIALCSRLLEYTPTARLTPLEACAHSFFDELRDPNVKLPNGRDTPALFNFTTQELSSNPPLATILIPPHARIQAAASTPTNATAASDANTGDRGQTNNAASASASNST
Sequence of GSK3α (GST-full length GSK3α) (P49840 whole entry): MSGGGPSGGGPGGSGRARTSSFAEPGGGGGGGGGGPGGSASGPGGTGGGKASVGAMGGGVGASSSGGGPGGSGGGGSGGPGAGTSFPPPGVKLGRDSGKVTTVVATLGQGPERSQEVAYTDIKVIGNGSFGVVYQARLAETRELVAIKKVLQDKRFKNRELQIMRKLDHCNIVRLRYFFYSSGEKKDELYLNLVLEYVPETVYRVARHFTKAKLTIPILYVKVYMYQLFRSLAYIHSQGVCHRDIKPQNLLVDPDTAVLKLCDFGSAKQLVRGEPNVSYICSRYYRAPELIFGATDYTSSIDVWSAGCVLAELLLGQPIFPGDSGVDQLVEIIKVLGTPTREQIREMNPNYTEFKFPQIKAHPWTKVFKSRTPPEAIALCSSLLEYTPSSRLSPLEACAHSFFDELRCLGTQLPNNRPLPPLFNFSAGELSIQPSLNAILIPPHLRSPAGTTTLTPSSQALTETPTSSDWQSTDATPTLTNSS

Row | SMILES | IC50 [1, 3] | IC50 [2, 4] | also measured
1 | CC[C@@]1(c2ccccc2)C2=C(C[C@](C)(COC)CC2=O)Nc2n[nH]cc21 [Compound 816874] | > 5 µM | > 5 µM | 
2 | CC[C@@]1(c2ccccc2)C2=C(C[C@@](C)(COC)CC2=O)Nc2n[nH]cc21 [Compound 816875] | 0.1 to 1 µM | 1 to 5 µM | 
3 | CC[C@]1(c2ccccc2)C2=C(C[C@@]3(CCCOC3)CC2=O)Nc2n[nH]cc21 [Compound 816876] | > 5 µM | > 5 µM | 
4 | CC[C@]1(c2ccccc2)C2=C(C[C@]3(CCCOC3)CC2=O)Nc2n[nH]cc21 [Compound 816877] | > 5 µM | > 5 µM | 
5 | CC[C@@]1(c2ccccc2)C2=C(C[C@@]3(CCCOC3)CC2=O)Nc2n[nH]cc21 [Compound 816878] | 0.1 to 1 µM | 1 to 5 µM | 
6 | CC[C@@]1(c2ccccc2)C2=C(C[C@]3(CCCOC3)CC2=O)Nc2n[nH]cc21 [Compound 816879] | 0.1 to 1 µM | 0.1 to 1 µM | 
7 | CC[C@]1(c2ccccc2)C2=C(C[C@]3(CCOC3)CC2=O)Nc2n[nH]cc21 [Compound 816880] | > 5 µM | > 5 µM | 
8 | CC[C@]1(c2ccccc2)C2=C(C[C@@]3(CCOC3)CC2=O)Nc2n[nH]cc21 [Compound 816881] | 0.1 to 1 µM | 1 to 5 µM | 
9 | CC[C@@]1(c2ccccc2)C2=C(C[C@]3(CCOC3)CC2=O)Nc2n[nH]cc21 [Compound 816882] | > 5 µM | > 5 µM | 
10 | CC[C@@]1(c2ccccc2)C2=C(C[C@@]3(CCOC3)CC2=O)Nc2n[nH]cc21 [Compound 816884] | 0.1 to 1 µM | 1 to 5 µM | 
11 | CCC1(c2cccc(N3CCOCC3)c2)C2=C(CC(C)(C)CC2=O)Nc2n[nH]c(C(F)(F)F)c21 (stereo not shown) [Compound 816886] | 1 to 5 µM | 1 to 5 µM | 
12 | CCC1(c2cccc(CN3CCCCC3)c2)C2=C(CC(C)(C)CC2=O)Nc2n[nH]cc21 (stereo not shown) [Compound 819560] | 1 to 5 µM | > 5 µM | 
13 | CCC1(c2cccc(S(C)(=O)=O)c2)C2=C(CC(C)(C)CC2=O)Nc2n[nH]cc21 (stereo not shown) [Compound 819561] | ≤ 0.1 µM | ≤ 0.1 µM | 
14 | CC1(C)CC(=O)C2=C(C1)Nc1n[nH]cc1C2(C)CCc1ccccc1 (stereo not shown) [Compound 819562] |  |  | IC50 [1, 5]: 1 to 5 µM; IC50 [2, 6]: > 5 µM
15 | CCC1(CCc2ccccc2)C2=C(CC(C)(C)CC2=O)Nc2n[nH]cc21 (stereo not shown) [Compound 819563] |  |  | IC50 [1, 5]: 1 to 5 µM; IC50 [2, 6]: > 5 µM
16 | CCC1(c2cccc(C(F)F)c2)C2=C(CC(C)(C)CC2=O)Nc2n[nH]cc21 (stereo not shown) [Compound 819564] | ≤ 0.1 µM | ≤ 0.1 µM | 
17 | CCC1(c2cccc(Br)c2)C2=C(CC(C(F)(F)F)CC2=O)Nc2n[nH]cc21 (stereo not shown) [Compound 819565] | 0.1 to 1 µM | 0.1 to 1 µM | 
18 | CC[C@@]1(c2ccccc2)C2=C(C[C@](C)(C(F)(F)F)CC2=O)Nc2n[nH]cc21 [Compound 819568] | 0.1 to 1 µM | 0.1 to 1 µM | 
19 | CC[C@]1(c2ccccc2)C2=C(C[C@](C)(C(F)(F)F)CC2=O)Nc2n[nH]cc21 [Compound 819569] | 0.1 to 1 µM | 1 to 5 µM | 
20 | CC[C@]1(c2ccccc2)C2=C(C[C@@](C)(C(F)(F)F)CC2=O)Nc2n[nH]cc21 [Compound 819570] | > 5 µM | > 5 µM | 
21 | CC[C@@]1(c2ccccc2)C2=C(C[C@@](C)(C(F)(F)F)CC2=O)Nc2n[nH]cc21 [Compound 819571] | > 5 µM | > 5 µM | 
22 | CC[C@]1(c2ccccc2)C2=C(CC3(CCC3)CC2=O)Nc2n[nH]cc21 [Compound 819572] | > 5 µM | > 5 µM | 

Row | SMILES | IC50 [1, 3] | IC50 [2, 4] | also measured
23 | CC[C@@]1(c2ccccc2)C2=C(CC3(CCC3)CC2=O)Nc2n[nH]cc21 [Compound 819573] | ≤ 0.1 µM | 0.1 to 1 µM | 
24 | CC[C@]1(c2cccc(N3CCCC3)c2)C2=C(CC(C)(C)CC2=O)Nc2n[nH]c(C(F)(F)F)c21 [Compound 819574] | ≤ 0.1 µM | ≤ 0.1 µM | IC50 [1, 7]: ≤ 0.1 µM; IC50 [2, 8]: ≤ 0.1 µM
25 | CCC1(c2cccc(N3CCCC3)c2)C2=C(CC(C)(C)CC2=O)Nc2n[nH]c(C(F)(F)F)c21 (stereo not shown) [Compound 819575] | 0.1 to 1 µM | ≤ 0.1 µM | IC50 [1, 7]: ≤ 0.1 µM; IC50 [2, 8]: ≤ 0.1 µM
26 | CCC1(c2cccc(-c3cnn(C)c3)c2)C2=C(CC(C)(C)CC2=O)Nc2n[nH]cc21 (stereo not shown) [Compound 819576] | 0.1 to 1 µM | 1 to 5 µM | 
27 | CCC1(c2cccc(-c3cnn(C)c3)c2)C2=C(CC(C)(C)CC2=O)Nc2n[nH]cc21 (stereo not shown) [Compound 819577] | ≤ 0.1 µM | 0.1 to 1 µM | IC50 [1, 7]: 0.1 to 1 µM; IC50 [2, 8]: > 5 µM
28 | CCC1(c2cccc(C3CCOCC3)c2)C2=C(CC(C)(C)CC2=O)Nc2n[nH]cc21 (stereo not shown) [Compound 819638] | ≤ 0.1 µM | 0.1 to 1 µM | IC50 [1, 7]: 0.1 to 1 µM; IC50 [2, 8]: > 5 µM
29 | CCC1(c2cccc(C(F)(F)F)c2)C2=C(CC(C)(C)N(C)C2=O)Nc2n[nH]cc21 (stereo not shown) [Compound 823130] |  |  | IC50 [1, 9]: ≤ 0.1 µM; IC50 [2, 10]: 0.1 to 1 µM
30 | CCC1(c2cccc(-c3cnn(C)c3)c2)C2=C(CC(C)CC2=O)Nc2n[nH]cc21 (stereo not shown) [Compound 823720] | ≤ 0.1 µM | 0.1 to 1 µM | 
31 | CCC1(c2cccc(-c3cnn(C)c3)c2)C2=C(CC(C)CC2=O)Nc2n[nH]cc21 (stereo not shown) [Compound 823721] | ≤ 0.1 µM | 0.1 to 1 µM | IC50 [1, 7]: 0.1 to 1 µM; IC50 [2, 8]: > 5 µM
32 | CCC1(c2cccc(-c3cnn(C)c3)c2)C2=C(CC(C)CC2=O)Nc2n[nH]cc21 (stereo not shown) [Compound 823726] | > 5 µM | > 5 µM | 
33 | CCC1(c2cccc(C(F)(F)F)c2)C2=C(CCN(C(C)C)C2=O)Nc2n[nH]cc21 (stereo not shown) [Compound 825755] |  |  | IC50 [1, 9]: ≤ 0.1 µM; IC50 [2, 10]: 0.1 to 1 µM
34 | CC1(C)CC(=O)C2=C(C1)Nc1n[nH]cc1C21CCOCC1 [Compound 826648, 7′,7′-dimethyl-2,2′,3,5,6,7′,8′,9′-octahydrospiro[pyran-4,4′-pyrazolo[3,4-b]quinolin]-5′ (6′H)-one] |  |  | IC50 [1, 11]: 0.1 to 1 µM; IC50 [2, 12]: 0.1 to 1 µM
35 | CC(=O)N1CCC2(CC1)C1=C(CC(C)(C)CC1=O)Nc1n[nH]cc12 [Compound 826649] |  |  | IC50 [1, 11]: 0.1 to 1 µM; IC50 [2, 12]: 1 to 5 µM
36 | CC1(C)CC(=O)C2=C(C1)Nc1n[nH]cc1C21CCCCC1 [Compound 826650] |  |  | IC50 [1, 11]: ≤ 0.1 µM; IC50 [2, 12]: ≤ 0.1 µM
37 | CC1(C)CC(=O)C2=C(C1)Nc1n[nH]cc1C21CCOC1 (stereo not shown) [Compound 826713] |  |  | IC50 [1, 11]: 0.1 to 1 µM; IC50 [2, 12]: 0.1 to 1 µM
38 | CN1CCC2(CC1)C1=C(CC(C)(C)CC1=O)Nc1n[nH]cc12 [Compound 826714] |  |  | IC50 [1, 5]: > 5 µM; IC50 [2, 6]: > 5 µM
39 | CCC1(c2cccc(Br)c2)C2=C(CC(C)CC2=O)Nc2n[nH]c(C(F)(F)F)c21 (stereo not shown) [Compound 826715] | ≤ 0.1 µM | ≤ 0.1 µM | 
40 | CCC1(c2cccc(C(F)F)c2)C2=C(CC(C)(C)CC2=O)Nc2n[nH]cc21 (stereo not shown) [Compound 826716] | 0.1 to 1 µM | > 5 µM | 
41 | CC[C@@]1(c2cccc(C(F)F)c2)C2=C(CC(C)(C)CC2=O)Nc2n[nH]cc21 [Compound 826717] | ≤ 0.1 µM | ≤ 0.1 µM | IC50 [1, 7]: 0.1 to 1 µM; IC50 [2, 8]: 1 to 5 µM
42 | CCC1(c2cccc(S(C)(=O)=O)c2)C2=C(CC(C)(C)CC2=O)Nc2n[nH]cc21 (stereo not shown) [Compound 826718] |  |  | IC50 [1, 7]: ≤ 0.1 µM; IC50 [2, 8]: 0.1 to 1 µM
43 | CC[C@]1(c2cccc(S(C)(=O)=O)c2)C2=C(CC(C)(C)CC2=O)Nc2n[nH]cc21 [Compound 826719] | 1 to 5 µM | > 5 µM | 
44 | CC(=O)N1CCC2(C1)C1=C(CC(C)(C)CC1=O)Nc1n[nH]cc12 (stereo not shown) [Compound 826763] |  |  | IC50 [1, 5]: 0.1 to 1 µM; IC50 [2, 6]: 1 to 5 µM
